# Where a name gives a salt, the structure may show the parent alone.
# Biological target: T1, recombinant IRAK-4 kinase (Homo sapiens, UniProt Q9NWZ3)
# T1 construct: purchased Millipore, USA
# T1 sequence (Q9NWZ3 1-460): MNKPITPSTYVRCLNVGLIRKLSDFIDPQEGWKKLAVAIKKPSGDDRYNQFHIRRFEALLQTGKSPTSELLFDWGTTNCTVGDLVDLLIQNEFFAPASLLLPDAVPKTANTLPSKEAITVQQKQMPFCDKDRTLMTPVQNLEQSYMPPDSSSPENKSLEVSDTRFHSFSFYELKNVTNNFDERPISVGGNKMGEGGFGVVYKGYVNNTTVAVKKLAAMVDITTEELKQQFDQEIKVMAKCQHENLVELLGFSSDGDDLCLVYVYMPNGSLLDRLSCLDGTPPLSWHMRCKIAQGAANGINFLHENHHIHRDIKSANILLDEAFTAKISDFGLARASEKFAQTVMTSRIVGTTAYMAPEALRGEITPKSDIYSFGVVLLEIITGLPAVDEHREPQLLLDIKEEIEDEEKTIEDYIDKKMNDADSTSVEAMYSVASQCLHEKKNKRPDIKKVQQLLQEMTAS
# Test: IRAK-4 Biochemical Assay (TR-FRET)
# Conditions: 5 ng IRAK-4 kinase, 100 nM Biotin Histone H3, 20 μM ATP, 30 minutes pre-incubation, read-out: IC50 values for IRAK4 activity
# Method: Compounds were tested for their potential to inhibit IRAK-4 enzyme in a TR-FRET assay using recombinant IRAK-4 kinase from Millipore, USA. The assay buffer was 50 mM Tris-HCl pH 7.5, 20 mM MgCl2, 1 mM EGTA, 2 mM DTT, 3 mM MnCl2 and 0.01% Tween20. 5 ng of IRAK-4 kinase was used for the assay. After pre-incubation of enzyme with test compound for 30 minutes at room temperature, a substrate mix containing 100 nM Biotin Histone H3 (Millipore, USA) and 20 μM ATP (Sigma, USA) was added and the reaction was incubated for 30 minutes. Post incubation, the reaction was stopped by the addition of stop mix containing 40 mM EDTA, 1 nM of Europium-Anti-Phospho-Histone H3 (Ser10) antibody (Perkin Elmer, USA) and 20 nM Sure Light Allophycocyanin-Streptavidin (Perkin Elmer, USA).
row,IC50 [nM],Compound
1,< 50,"Cc1cc(-c2nc(C(=O)Nc3cc4oc(N5CCCCC5)nc4nc3N3CCCC3)co2)ccn1 [Example 111, 2-(2-methylpyridin-4-yl)-N-(2-(piperidin-1-yl)-5-(pyrrolidin-1-yl)oxazolo[4,5-b]pyridin-6-yl)oxazole-4-carboxamide]"
2,< 50,"Cc1cc(-c2nc(C(=O)Nc3cc4sc(N5CCOCC5)nc4nc3N3CCC[C@H](O)C3)co2)ccn1 [Example 83, (S)—N-(5-(3-hydroxypiperidin-1-yl)-2-morpholinothiazolo[4,5-b]pyridin-6-yl)-2-(2-methylpyridin-4-yl)oxazole-4-carboxamide]"
3,< 50,"Cc1cc(-c2nc(C(=O)Nc3cc4sc(N5CCOCC5)nc4nc3C3CC3)co2)ccn1 [Example 69, N-(5-cyclopropyl-2-morpholinothiazolo[4,5-b]pyridin-6-yl)-2-(2-methylpyridin-4-yl)oxazole-4-carboxamide]"
4,< 50,"Cc1cc(-c2nc(C(=O)Nc3cc4sc(N5CCCCC5)nc4nc3N3CCCC3)co2)ccn1 [Example 88, 2-(2-methylpyridin-4-yl)-N-(2-(piperidin-1-yl)-5-(pyrrolidin-1-yl)thiazolo[4,5-b]pyridin-6-yl)oxazole-4-carboxamide]"
5,< 50,"Nc1cc(-c2nc(C(=O)Nc3cc4sc(N5CCOCC5)nc4nc3N3CCCC(O)C3)co2)ccn1 (centres unmarked) [Example 128, 2-(2-aminopyridin-4-yl)-N-(5-(3-hydroxypiperidin-1-yl)-2-morpholinothiazolo[4,5-b]pyridin-6-yl)oxazole-4-carboxamide hydrochloride]"
6,< 50,"Cc1cc(-c2ccc(C(=O)Nc3cc4sc(N5CCOCC5)nc4nc3N3CCC(O)CC3)o2)ccn1 [Example 101, N-(5-(4-hydroxypiperidin-1-yl)-2-morpholinothiazolo[4,5-b]pyridin-6-yl)-5-(2-methylpyridin-4-yl)furan-2-carboxamide]"
7,> 100,"Cc1cc(-c2nc(C(=O)Nc3cc4oc(N5CCCC5)nc4nc3N3CCCCC3)co2)ccn1 [Example 48, 2-(2-methylpyridin-4-yl)-N-(5-(piperidin-1-yl)-2-(pyrrolidin-1-yl)oxazolo[4,5-b]pyridin-6-yl)oxazole-4-carboxamide hydrochloride]"
8,< 50,"Cc1cc(-c2nc(C(=O)Nc3cc4sc(N5CCOCC5)nc4nc3-c3cnn(C)c3)co2)ccn1 [Example 99, N-(5-(1-methyl-1H-pyrazol-4-yl)-2-morpholinothiazolo[4,5-b]pyridin-6-yl)-2-(2-methylpyridin-4-yl)oxazole-4-carboxamide]"
9,< 50,"Cc1cc(-c2nc(C(=O)Nc3cc4sc(N5CCOCC5)nc4nc3N3CCC(O)CC3)co2)ccn1 [Example 84, N-(5-(4-hydroxypiperidin-1-yl)-2-morpholinothiazolo[4,5-b]pyridin-6-yl)-2-(2-methylpyridin-4-yl)oxazole-4-carboxamide]"
10,> 100,"COc1ccc(-c2nc(C(=O)Nc3cc4oc(N5CCOCC5)nc4nc3N3CCC(O)C3)co2)cn1 (centres unmarked) [Example 106, N-(5-(3-hydroxypyrrolidin-1-yl)-2-morpholinooxazolo[4,5-b]pyridin-6-yl)-2-(6-methoxypyridin-3-yl)oxazole-4-carboxamide]"
11,> 100,"O=C(Nc1cc2oc(N3CCCCC3)nc2nc1N1CCCCC1)c1coc(-c2cccnc2O)n1 [Example 28, N-(2,5-di(piperidin-1-yl)oxazolo[4,5-b]pyridin-6-yl)-2-(2-hydroxypyridin-3-yl)oxazole-4-carboxamide]"
12,> 100,"Cc1cc(-c2nc(C(=O)Nc3cc4oc(N5CCOCC5)nc4nc3N3CCCC3)co2)ccn1 [Example 112, 2-(2-methylpyridin-4-yl)-N-(2-morpholino-5-(pyrrolidin-1-yl)oxazolo[4,5-b]pyridin-6-yl)oxazole-4-carboxamide]"
13,< 50,"Cc1cc(-c2nc(C(=O)Nc3cc4sc(N5CCOCC5)nc4nc3N3CC(O)C3)co2)ccn1 [Example 80, N-(5-(3-hydroxyazetidin-1-yl)-2-morpholinothiazolo[4,5-b]pyridin-6-yl)-2-(2-methylpyridin-4-yl)oxazole-4-carboxamide]"
14,< 50,"Cc1cc(-c2nc(C(=O)Nc3cc4sc(N5CCCCC5)nc4nc3N3CCCCC3)co2)ccn1 [Example 23, N-(2,5-di(piperidin-1-yl)thiazolo[4,5-b]pyridin-6-yl)-2-(2-methylpyridin-4-yl)oxazole-4-carboxamide]"
15,< 50,"Cc1cc(-c2nc(C(=O)Nc3cc4sc(N5CCOCC5)nc4nc3N3CCC3)co2)ccn1 [Example 93, N-(5-(azetidin-1-yl)-2-morpholinothiazolo[4,5-b]pyridin-6-yl)-2-(2-methylpyridin-4-yl)oxazole-4-carboxamide]"
16,< 50,"O=C(Nc1cc2oc(N3CCOCC3)nc2nc1N1CCCCC1)c1coc(-c2cccnc2O)n1 [Example 29, 2-(2-hydroxypyridin-3-yl)-N-(2-morpholino-5-(piperidin-1-yl)oxazolo[4,5-b]pyridin-6-yl)oxazole-4-carboxamide]"
17,< 50,"Cc1cc(-c2nc(C(=O)Nc3cc4sc(N5CCOCC5)nc4nc3-c3ccc(F)nc3)co2)ccn1 [Example 122, N-(5-(6-fluoropyridin-3-yl)-2-morpholinothiazolo[4,5-b]pyridin-6-yl)-2-(2-methylpyridin-4-yl)oxazole-4-carboxamide]"
18,< 50,"Cc1cc(-c2ccc(C(=O)Nc3cc4oc(N5CCOCC5)nc4nc3N3CCC[C@@H](O)C3)o2)ccn1 [Example 115, (R)—N-(5-(3-hydroxypiperidin-1-yl)-2-morpholinooxazolo[4,5-b]pyridin-6-yl)-5-(2-methylpyridin-4-yl)furan-2-carboxamide]"
19,< 50,"Cc1cnccc1-c1nc(C(=O)Nc2cc3oc(N4CCOCC4)nc3nc2N2CCCCC2)co1 [Example 33, 2-(3-methylpyridin-4-yl)-N-(2-morpholino-5-(piperidin-1-yl)oxazolo[4,5-b]pyridin-6-yl)oxazole-4-carboxamide]"
20,< 50,"Nc1ccc(-c2cccc(C(=O)Nc3ccc4nc(N5CCOCC5)sc4n3)n2)cn1 [Example 14, 6′-amino-N-(2-morpholinothiazolo[5,4-b]pyridin-5-yl)-[2,3′-bipyridine]-6-carboxamide]"
21,< 50,"O=C(Nc1cc2sc(N3CCCCC3)nc2nc1N1CCCCC1)c1cccc(-c2cn[nH]c2)n1 [Example 22, N-(2,5-di(piperidin-1-yl)thiazolo[4,5-b]pyridin-6-yl)-6-(1H-pyrazol-4-yl)picolinamide]"
22,< 50,"Cc1cnccc1-c1nc(C(=O)Nc2cc3oc(N4CCCCC4)nc3nc2N2CCCCC2)co1 [Example 34, N-(2,5-di(piperidin-1-yl)oxazolo[4,5-b]pyridin-6-yl)-2-(3-methylpyridin-4-yl)oxazole-4-carboxamide]"
23,< 50,"Cc1cc(-c2ccc(C(=O)Nc3cc4sc(N5CCOCC5)nc4nc3N3CCC(F)CC3)o2)ccn1 [Example 97, N-(5-(4-fluoropiperidin-1-yl)-2-morpholinothiazolo[4,5-b]pyridin-6-yl)-5-(2-methylpyridin-4-yl)furan-2-carboxamide]"
24,< 50,"Cc1ccc(-c2nc(C(=O)Nc3cc4oc(N5CCCCC5)nc4nc3N3CCCCC3)co2)cn1 [Example 37, N-(2,5-di(piperidin-1-yl)oxazolo[4,5-b]pyridin-6-yl)-2-(6-methylpyridin-3-yl)oxazole-4-carboxamide]"
25,< 50,"Cc1cc(-c2ccc(C(=O)Nc3cc4sc(N5CCOCC5)nc4nc3N3CCCCC3)o2)ccn1 [Example 90, 5-(2-methylpyridin-4-yl)-N-(2-morpholino-5-(piperidin-1-yl)thiazolo[4,5-b]pyridin-6-yl)furan-2-carboxamide]"
26,> 100,"Cc1cc(-c2nc(C(=O)Nc3cc4oc(N5CCCCC5)nc4nc3N3CCC3)co2)ccn1 [Example 109, N-(5-(azetidin-1-yl)-2-(piperidin-1-yl)oxazolo[4,5-b]pyridin-6-yl)-2-(2-methylpyridin-4-yl)oxazole-4-carboxamide]"
27,50 to 100,"N[C@H]1CCN(c2nc(C(=O)Nc3cc4oc(N5CCOCC5)nc4nc3N3CCCCC3)co2)C1 [Example 42, (S)-2-(3-aminopyrrolidin-1-yl)-N-(2-morpholino-5-(piperidin-1-yl)oxazolo[4,5-b]pyridin-6-yl)oxazole-4-carboxamide]"
28,< 50,"Cc1ncccc1-c1nc(C(=O)Nc2cc3sc(N4CCOCC4)nc3nc2N2CCCCC2)co1 [Example 54, 2-(2-methylpyridin-3-yl)-N-(2-morpholino-5-(piperidin-1-yl)thiazolo[4,5-b]pyridin-6-yl)oxazole-4-carboxamide]"
29,< 50,"C[C@H](O)Cn1cc(-c2cccc(C(=O)Nc3cc4sc(N5CCOCC5)nc4nc3C3CC3)n2)cn1 [Example 74, (S)—N-(5-cyclopropyl-2-morpholinothiazolo[4,5-b]pyridin-6-yl)-6-(1-(2-hydroxypropyl)-1H-pyrazol-4-yl)picolinamide]"

# Source: patent publication US10047104B2, “Bicyclic heterocyclyl derivatives as IRAK4 inhibitors” (Aurigene Discovery Technologies Limited, priority 2014, dated 2018)
